Laboratory results as given in US20090074869A1, “PHARMACEUTICAL FORMULATIONS” (Schering Corporation, priority 2003, published 2009).

How the values were obtained:
[1] = solubility in water and wettability of the crystalline form; type: physicochemical
PDE V = PDE V (Homo sapiens, UniProt O76074); assay: PDE V inhibition; type: biochemical
[2] = absorption and bioavailability tests in animals; type: in vivo

CCn1c(=O)c2c(nc(N[C@@H]3CCC[C@H]3O)n2Cc2ccc(OC)c(Br)c2)n(CCO)c1=O [7-[(3-Bromo-4-methoxyphenyl)methyl]-1-ethyl-3,7-dihydro-8-[[(1R,2R)-2-hydroxycyclopentyl]amino]-3-(2-hydroxyethyl)-1H-purine-2,6-dione]
solubility in water [1]: poor
wettability ([1]; crystalline form): poor
effectiveness as a PDE V inhibitor (PDE V): particularly effective
specificity for PDE isozyme (PDE V): specificity for the PDE V isozyme
absorption from the gastrointestinal tract ([2]; in vivo): slow
bioavailability ([2]; tests conducted so far in animals): low
